Data set [1] deals with Laodelphax striatellus Fallen--Smaller brown planthopper. In words: Effect on smaller brown planthopper (mortality, treated rice seedlings). As to conditions: female adults, 25° C., 48 hours. In kind it is in vivo. The procedure:
Effect on Laodelphax striatellus Fallen--Smaller brown planthopper Each compound of the present invention was dissolved in acetone to prepare an acetone solution having a predetermined concentration, and 3 ml of the acetone solution was applied over a bundle of several rice seedlings (about third leaf stage). After drying in air, the treated seedlings were covered with a metal gauze cylinder, and ten female adults of smaller brown planthopper were introduced into the cylinder. Afterward, this cylinder was placed in a temperature controlled room at 25° C. and after 48 hours, mortality was checked.

Data set [2] relates to resistant strain of Nepphotettix cincticeptus Unler--Resistant green rice leafhopper. The data set is described as follows: Effect on resistant green rice leafhopper (mortality, treated rice seedlings). Type of data set: in vivo. The settings on record: for mortality at 200 ppm / mortality at 1000 ppm: Nephotettix cincticeps. Here is the method: Effect on resistant strain of Nepphotettix cincticeptus Unler--Resistant green rice leafhopper
Each compound of the present invention was dissolved in acetone to prepare an acetone solution having a predetermined concentration, and 3 ml of the acetone solution was applied over a bundle of several rice seedlings (about third leaf stage). After drying in air, the treated seedlings were covered with a metal gauze cylinder, and ten female adults of resistant green rice leafhopper were introduced into the cylinder. Afterward, this cylinder was placed in a temperature controlled room at 25° C., and after 48 hours, mortality was checked.

For data set [3], the system named is Myzus persicae Sulzer--Green peach aphid. In words: Effect on green peach aphid (mortality, sprayed eggplant seedlings). In kind it is in vivo. The settings on record: for mortality at 10 ppm / mortality at 100 ppm: Myzus persicae, 48 h; for Mortality (%): 48 hours. The procedure:
(§1) 20 parts of a compound of the present invention, 10 parts of Sorpol 355S (made by Toho Chemical Co., Ltd., a surface active agent), 70 parts of xylene were uniformly stirred and mixed to obtain an emulsion. Here, the parts mean parts by weight, which will apply to the following.
Effect on Myzus persicae Sulzer--Green peach aphid
The emulsion of each compound of the present invention prepared according to Formulation Example 1 was diluted with distilled water to a predetermined concentration, and a spreading agent (New Gramn, made by Sankyo Co., Ltd.) was then added thereto so that its concentration might be 0.02%. Then, the thus prepared chemical solution was sprayed over eggplant seedlings of 2nd and 3rd plastochrons, on which green peach aphids had been parasitic, and the seedlings were the cultivated in a hothouse. After 48 hours, the number of the alive green peach aphid was counted to calculate mortality.

Data set [4] can be described thus: Acute toxicity to mice (oral). The settings on record: mouse, in vivo; oral (stomach tube); male mice 6 weeks old; 14 days observation. Here is the method: 5-week-old male mice (Crj: CD-1) were purchased and then tamed for 1 week, and so the mice of 6 weeks old were tested. The mice were bred in a breeding chamber having a temperature of 23°±2° C., a humidity of 50±10%, a ventilation frequency of 15 times/hour and a lighting time of 12 hours/day. A solid feed (CE-2, made by Nippon Clea) was given, and as drinking water, tap water was freely given.
Each compound to be tested was Suspended in acetone:corn oil (1:9) by the use of a high-speed homogenizer, and then orally administered forcedly to the mice to be tested through a stomach tube. The amount of the solution to be administered was 0.1 ml with respect to 10 g of weight (10 ml/kg).
One administration group was constituted of 5 mice, and an observation period was 14 days from the administration.

The test system of data set [5] is Spodoptera litura Fabricius--Common cutworm. The data set is described as follows: Effect on common cutworm (mortality, leaf immersion). Type of data set: in vivo. The settings on record: second instar larvae, 25° C.; for mortality at 1000 ppm: Spodoptera litura, 72 h; for Mortality (%): 1000 ppm, 72 hours, 4320 min. Here is the method:
as §1
Effect on Spodoptera litura Fabricius--Common cutworm
The emulsion of each compound of the present invention prepared according to Formulation Example 1 was diluted with distilled water to a predetermined concentration, and a spreading agent New Gramin, made by Sankyo Co., Ltd.) was then added thereto so that its concentration might be 0.02%. Then, 3leaves of Ipomea batatas were fully immersed in the solution. After drying in air, the leaves were placed in a plastic cup having a diameter of 9 cm and a depth of 4 cm, and 10 second instar larvae of common cutworm were allowed to eat the leaves at 25° C. After 72 hours, mortality was checked.

Setting [6] is: 200 ppm, female adults, 25° C., 48 hours, read-out: Mortality (%).
Where [7] appears, read: 1000 ppm, female adults, 25° C., 48 hours, read-out: Mortality (%).

Like-named read-outs stand apart in the source and are kept apart here. Some results are limits rather than exact numbers.

The values below come from patent US5614527A, “Insecticidal tetrahydrofuran-compound” (Mitsui Toatsu Chemicals, Inc., priority 1994, dated 1997).

Take `CC1CC(CN2CCCNC2=N[N+](=O)[O-])CO1` (stereo not drawn) [Compound No. 2, 1-[(2-methyl-4-tetrahydrofuryl)methyl]-2-(nitroimino)hexahydropyrimidine]: the “Mortality (%)” value in data set [1] (200 ppm) and in data set [1] (1000 ppm) was 100% in each case. Moreover, in data set [2] (48 h), the mortality at 200 ppm worked out at 100%. Also, in data set [2] (48 h), the mortality at 1000 ppm worked out at 100%. The same molecule registered a mortality at 10 ppm in data set [3] (10 ppm) of 100%. In data set [3] (100 ppm), this molecule yielded a mortality at 100 ppm of 100%. The molecule also gave an LD50 at 336 h in data set [4] greater than 500 mg/kg.

Consider `O=[N+]([O-])N=C1NCCN1CC1CCOC1` (stereo not drawn) [Compound No. 4, 1-[(tetrahydro-3-furanyl)methyl]-2-(nitroimino)imidazolidine], for which the “Mortality (%)” value in data set [1] (200 ppm) and in data set [1] (1000 ppm) was 100% in each case. Further, the mortality at 200 ppm in data set [2] (setting [6]) came out at 100%. In addition, the mortality at 1000 ppm in data set [2] (setting [7]) and in data set [5] was 100% each time. In data set [3] (10 ppm), this molecule registered a mortality at 10 ppm of 67%. In data set [3] (100 ppm), this molecule came in with a mortality at 100 ppm of 100%.

Turning to `CCCC(=O)N1CCN(CC2CCOC2)C1=N[N+](=O)[O-]` (stereo not drawn) [Compound No. 12, 1-(propylcarbonyl)-2-(nitroimino)-3-[(tetrahydro-3-furanyl)methyl]imidazolidine], the “Mortality (%)” value in data set [1] (200 ppm) and in data set [1] (1000 ppm) was 100% each time. The mortality at 200 ppm in data set [2] (setting [6]) turned out to be 100%. Also, the mortality at 1000 ppm in data set [2] (setting [7]) and in data set [5] was 100% in each case. This molecule had a mortality at 10 ppm in data set [3] (10 ppm) of 0%. Also, in data set [3] (100 ppm), the mortality at 100 ppm stood at 66%.

As to `CC1(C)CC(CN2CCCNC2=N[N+](=O)[O-])CO1` (stereo not drawn) [Compound No. 3, 1-[(2,2-dimethyl-4-tetrahydrofuryl)methyl]-2-(nitroimino)hexahydropyrimidine], the “Mortality (%)” value in data set [1] (200 ppm) and in data set [1] (1000 ppm) was 100% in each case. Also, the mortality at 200 ppm in data set [2] (setting [6]) amounted to 100%. The mortality at 1000 ppm in data set [2] (setting [7]) was 100%. Further, in data set [3] (10 ppm), the mortality at 10 ppm is 100%. For the same molecule, in data set [3] (100 ppm), the mortality at 100 ppm came to 100%.

Regarding `O=[N+]([O-])N=C1NCCN1CC1CCCO1` (stereo not drawn) [Comparative Compound (1), 1-[(tetrahydro-2-furanyl)methyl]-2-(nitroimino)imidazolidine, reference compound], the “Mortality (%)” value in data set [1] (200 ppm) is 0%; in data set [1] (1000 ppm), 20%. The mortality at 200 ppm in data set [2] (setting [6]) is 0%. In addition, the mortality at 1000 ppm came out at 30% in data set [2] (setting [7]) and 0% in data set [5]. This molecule registered a mortality at 10 ppm in data set [3] (10 ppm) of 0%. For the same molecule, the mortality at 100 ppm in data set [3] (100 ppm) was 0%.

With `CC1(C)CC(CN2CCNC2=N[N+](=O)[O-])CO1` (stereo not drawn) [Compound No. 6, 1-[(2,2-dimethyl-4-tetrahydrofuryl)methyl]-2-(nitroimino)imidazolidine], the “Mortality (%)” value in data set [1] (200 ppm) and in data set [1] (1000 ppm) was 100% each time. Moreover, the mortality at 200 ppm in data set [2] (setting [6]) was found to be 100%. Moreover, in data set [2] (setting [7]), the mortality at 1000 ppm is 100%. Also, the mortality at 10 ppm in data set [3] (10 ppm) was determined as 82%. This molecule displayed a mortality at 100 ppm in data set [3] (100 ppm) of 100%.

Regarding `CC(=O)N1CCCN(CC2CCOC2)C1=N[N+](=O)[O-]` (stereo not drawn) [Compound No. 8, 1-(methylcarbonyl)-2-(nitroimino)-3-[(tetrahydro-3-furanyl)methyl]hexahydropyrimidine], the “Mortality (%)” value in data set [1] (200 ppm) and in data set [1] (1000 ppm) was 100% in each case. In addition, the mortality at 200 ppm in data set [2] (setting [6]) amounted to 100%. Moreover, the mortality at 1000 ppm in data set [2] (setting [7]) came to 100%. Moreover, the mortality at 10 ppm in data set [3] (10 ppm) came out at 100%. In data set [3] (100 ppm), this molecule yielded a mortality at 100 ppm of 100%.

On to `CC(=O)N1CCN(CC2CCOC2)C1=N[N+](=O)[O-]` (stereo not drawn) [Compound No. 7, 1-(methylcarbonyl)-2-(nitroimino)-3-[(tetrahydro-3-furanyl)methyl]imidazolidine], for which the “Mortality (%)” value in data set [1] (200 ppm) and in data set [1] (1000 ppm) was 100% each time. Further, the mortality at 200 ppm in data set [2] (setting [6]) was 100%. Moreover, the mortality at 1000 ppm in data set [2] (setting [7]) and in data set [5] was 100% throughout. In addition, the mortality at 10 ppm in data set [3] (10 ppm) was 63%. Further, in data set [3] (100 ppm), the mortality at 100 ppm worked out at 100%.

Turning to `O=[N+]([O-])N=C1NCCN1Cc1ccoc1` [Comparative Compound (2), reference compound], the “Mortality (%)” value amounted to 0% in data set [1] (200 ppm) and 40% in data set [1] (1000 ppm). Moreover, the mortality at 1000 ppm in data set [5] is 0%.

`O=[N+]([O-])C=C1NCCCN1CC1CCOC1` (stereo not drawn) [Comparative Compound (3), reference compound] had a mortality at 1000 ppm in data set [5] of 0%.

As to `CC(=O)N1CCCN(CC2COC(C)C2)C1=N[N+](=O)[O-]` (stereo not drawn) [Compound No. 10, 1-(methylcarbonyl)-3-[(2-methyl-4-tetrahydrofuryl)methyl]-2-(nitroimino) hexahydropyrimidine], the “Mortality (%)” value in data set [1] (200 ppm) and in data set [1] (1000 ppm) was 100% each time. For the same molecule, the mortality at 200 ppm in data set [2] (setting [6]) was 100%. Also, the mortality at 1000 ppm in data set [2] (setting [7]) and in data set [5] was 100% each time. For the same molecule, in data set [3] (10 ppm), the mortality at 10 ppm was found to be 100%. Further, the mortality at 100 ppm in data set [3] (100 ppm) was 100%.

Consider `CC(C)C(=O)N1CCCN(CC2CCOC2)C1=N[N+](=O)[O-]` (stereo not drawn) [Compound No. 9, 1-(isopropylcarbonyl)-2-(nitroimino)-3-[(tetrahydro-3-furanyl)methyl]hexahydropyrimidine], for which the “Mortality (%)” value in data set [1] (200 ppm) and in data set [1] (1000 ppm) was 100% each time. The mortality at 200 ppm in data set [2] (setting [6]) stood at 100%. Moreover, the mortality at 1000 ppm in data set [2] (setting [7]) was 100%. Further, the mortality at 10 ppm in data set [3] (10 ppm) came to 86%. In data set [3] (100 ppm), this molecule returned a mortality at 100 ppm of 100%.

Regarding `CCC(=O)N1CCCN(CC2CCOC2)C1=N[N+](=O)[O-]` (stereo not drawn) [Compound No. 11, 1-(ethylcarbonyl)-2-(nitroimino)-3-[(tetrahydro-3-furanyl)methyl]hexahydropyrimidine], the results for the “Mortality (%)” value in data set [1] (200 ppm), in data set [1] (1000 ppm) and in data set [5] were 100%, 100% and 70%, respectively. For the same molecule, the mortality at 200 ppm in data set [2] (setting [6]) turned out to be 100%. Also, the mortality at 1000 ppm in data set [2] (setting [7]) turned out to be 100%. In data set [3] (100 ppm), this molecule gave a mortality at 100 ppm of 100%.

In data set [4], `O=[N+]([O-])/N=C1\NCCCN1Cc1ccc(Cl)nc1` [Comparative Compound (4), reference compound] came in with an LD50 at 336 h of 30 to 100 mg/kg.

As for `CC1CC(CN2CCNC2=N[N+](=O)[O-])CO1` (stereo not drawn) [Compound No. 5, 1-[(2-methyl-4-tetrahydrofuryl)methyl]-2-(nitroimino)imidazolidine], the “Mortality (%)” value in data set [1] (200 ppm) and in data set [1] (1000 ppm) was 100% in each case. The mortality at 200 ppm in data set [2] (setting [6]) stood at 100%. Moreover, in data set [2] (setting [7]), the mortality at 1000 ppm stood at 100%. This molecule showed a mortality at 10 ppm in data set [3] (10 ppm) of 100%. The same molecule showed a mortality at 100 ppm in data set [3] (100 ppm) of 100%.

For `CCC(=O)N1CCCN(CC2CCOC2)C1=N[N+](=O)[O-]` (stereo not drawn) [Compound No. 13, 1-propionyl-2-(nitroimino)-3-[(tetrahydro-3-furanyl)methyl]hexahydropyrimidine], the “Mortality (%)” value in data set [1] (200 ppm) is recorded as 100%; in data set [1] (1000 ppm), 100%; in data set [2] (200 ppm, female adults, 25° C., 48 hours), 100%; in data set [2] (1000 ppm, female adults, 25° C., 48 hours), 100%; in data set [5], 100%; in data set [3] (10 ppm, 2880 min), 27%. The “Mortality (%)” value in data set [3] (100 ppm) is listed as 100%.

Usually mortality stands for the percentage killed. What is called LD50 is the dose at which mortality reaches 50%. A low value points to a more toxic substance.
